Source: patent publication US8974814B2, “Layered drug delivery polymer monofilament fibers” (California Institute of Technology, priority 2007, dated 2015)

Columns and labels:
[1] = Levofloxacin stability on formulation at elevated temperature / autoclaving; format: physicochemical; details: HPLC, solution equilibrated at 60° C.
Excerpt: Wet-spinning fibers from a solution of levofloxacin and PLGA results in a product that is porous with a rough surface (on the sub-micron length scale). The internal morphology of the fiber is consistent with fiber prepared in previous work via wet-spinning. (See, e.g., Gao, H., et al., Journal of Controlled Release 2007; 118(3):325-332, the disclosure of which is incorporated herein by reference.) The protuberances on the surface of the fiber are likely the result of the drug forming aggregates on the surface, and/or by the drug distorting the polymer matrix at the surface. Fiber B has larger more discrete protuberances relative to fibers A and C. This may be due to fiber B having suspended particles of drug present in the polymer solution before wet spinning. […] Fiber C was manufactured at an elevated temperature to absolutely assure total drug dissolution in the polymer/DMSO solution. […] (See e.g., Fujimoto, K., et al., Jpn J Pharmacol 1995; 69(4):443-445, the disclosure of which is incorporated herein by reference.)

[2] = Isothermal titration calorimetry of octanoic acid with cyclodextrin; format: binding; details: 1:1 complex, DPBS
Protocol: The binding energy between octanoic acid and -cyclodextrin (-CD) was determined by isothermal titration calorimetry. Briefly, solutions used of […]-CD and 0.2 M octanoic acid were made in DPBS. Ten injections of […] each of the octanoic acid solution were made into 1.37 ml of the cyclodextrin in a Microcal ITC unit. A 1:1 complex is formed with an equilibrium constant of 1900.

**Q.** Which “stability after formulation at higher temperatures” value [1] does the source give for `C[C@H]1COc2c(N3CCN(C)CC3)c(F)cc3c(=O)c(C(=O)O)cn1c23` [Levofloxacin, levofloxacin] here?
**A.** Its value is “no other peaks were observed in the HPLC chromatogram”.

**Q.** For `CCCCCCCC(=O)O` [octanoic acid], which equilibrium constant [2] is on record?
**A.** The equilibrium constant was 1900.
